The values that follow come from patent publication US7781416B2, “Derivatives of partially desulphated glycosaminoglycans as heparanase inhibitors, endowed with antiangiogenic activity and devoid of anticoagulating effect” (Sigma-Tau Research Switzerland S.A., priority 2002, dated 2010).

One may read the Inhibition as the percentage by which the read-out fell short of the control.

What all share (format): biochemical
The target of test [1] is T1, recombinant heparanase (Homo sapiens, UniProt Q9Y251).
T1 sequence (Q9Y251 36-543): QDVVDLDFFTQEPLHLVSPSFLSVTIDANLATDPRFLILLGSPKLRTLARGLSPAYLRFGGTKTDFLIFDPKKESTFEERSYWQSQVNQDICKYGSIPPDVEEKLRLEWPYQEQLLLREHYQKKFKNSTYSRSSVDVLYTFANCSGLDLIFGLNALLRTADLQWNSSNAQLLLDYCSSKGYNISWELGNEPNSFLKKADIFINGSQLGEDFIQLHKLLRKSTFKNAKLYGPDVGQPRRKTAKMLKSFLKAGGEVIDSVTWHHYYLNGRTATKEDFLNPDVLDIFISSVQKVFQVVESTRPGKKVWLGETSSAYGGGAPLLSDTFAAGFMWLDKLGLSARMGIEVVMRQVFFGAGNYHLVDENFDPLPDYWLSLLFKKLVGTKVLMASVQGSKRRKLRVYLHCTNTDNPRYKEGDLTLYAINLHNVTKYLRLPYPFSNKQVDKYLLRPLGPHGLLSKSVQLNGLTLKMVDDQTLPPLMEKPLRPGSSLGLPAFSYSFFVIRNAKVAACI
Kind of test: Heparanase inhibition, fragmentation of HS of sulphate labelled ECM (Table 1). As to conditions: pH 6.2. How it is done:
The heparanase inhibiting activity was determined according to a method established by Vlodavsky's group (Bitan M. et al, 1995). The method is based on evaluation of the extent of fragmentation of the heparan sulphate chains of heparan sulphate proteoglycans (HSPG) caused by heparanase. Sulphate labelled extracellular matrix (ECM) is most commonly used as a source of HSPG. Sulphate labelled ECM is incubated with recombinant heparanase at pH 6.2 in the absence and in the presence of increasing concentrations of the test compound. To evaluate the occurrence of proteoglycan degradation, the incubation medium is collected and applied for gel filtration on Sepharose 6B columns (0.9×30 cm). Fractions (0,2 ml) are eluted with PBS at a flow rate of 5 ml/h and counted for radioactivity. The excluded volume (Vo) is marked by blue dextran and the total included volume (Vt) by phenol red. Degradation fragments of HS side chains are eluted from Sepharose 6B at 0.5<Kav<0.8 (peak II).

Test [2] addresses T2, recombinant heparanase (Homo sapiens, UniProt Q9Y251).
T2 construct: Recombinant enzymatically active heparanase was purified from heparanase-transfected CHO cells; made in house; host or cells: CHO cells transfected with heparanase
T2 sequence (Q9Y251 158-543 limits assumed): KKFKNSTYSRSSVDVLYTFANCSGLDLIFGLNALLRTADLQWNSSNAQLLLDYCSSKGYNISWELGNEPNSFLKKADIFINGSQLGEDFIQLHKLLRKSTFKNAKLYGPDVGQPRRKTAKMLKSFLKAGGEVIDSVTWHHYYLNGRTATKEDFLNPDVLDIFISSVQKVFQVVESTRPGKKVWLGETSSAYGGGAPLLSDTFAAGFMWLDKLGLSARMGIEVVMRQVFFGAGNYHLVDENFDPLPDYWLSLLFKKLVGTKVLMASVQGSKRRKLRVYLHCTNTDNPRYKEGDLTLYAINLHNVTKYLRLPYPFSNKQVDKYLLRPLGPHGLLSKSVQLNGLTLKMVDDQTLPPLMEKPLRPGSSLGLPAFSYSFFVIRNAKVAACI
T2 sequence (Q9Y251 36-109 limits assumed): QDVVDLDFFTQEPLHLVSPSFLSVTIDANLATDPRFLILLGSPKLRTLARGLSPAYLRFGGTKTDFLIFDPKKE
The test can be described thus: Heparanase inhibition activity with sulfate labeled ECM as substrate (Example 4, Table 2). As to conditions: 1 μg/ml; heparanase 40 ng/ml, 4 h, 37° C., pH 6.0. How it is done:
Recombinant enzymatically active heparanase was purified from heparanase-transfected CHO cells (1).
Bovine corneal endothelial cells were plated into 35-mm tissue culture dishes at an initial density of 2×10^5 cells/ml and cultured as described above, except that 4% dextran T-40 was included in the growth medium (1, 52). On day 12, the subendothelial ECM was exposed by dissolving the cell layer with PBS containing 0.5% Triton X-100 and 20 mM NH4OH, followed by four washes with PBS (12). The ECM remained intact, free of cellular debris and firmly attached to the entire area of the tissue culture dish. To produce sulfate labelled ECM, […] (Amersham, Buckinghamshire, UK) was added (25 μCi/ml) on days 2 and 5 after seeding and the cultures were incubated with the label without medium change and processed as described (1, 52). Nearly 80% of the ECM radioactivity was incorporated into HSPG.
Heparin species were tested for their ability to inhibit heparanase, using metabolically sulfate labeled ECM as a substrate. […] Fractions (0.2 ml) were eluted with PBS at a flow rate of 5 ml/h and counted for radioactivity. […]
Heparanase activity is calculated as the total amount of cpm eluted in peak II multiplied by the Kav (i.e., elution position) of these fragments. […]

Test [3] has as its target T2, recombinant heparanase. The test can be described thus: Gel permeation analysis before and after digestion with heparanase (susceptibility to cleavage). As to conditions: 2 mg compound, 4 μg recombinant heparanase, 48 h, 37° C., pH 5.8; GPC-HPLC. How it is done:
FIG. 8. Glycol-splitting inhibits cleavage by heparanase. Gel filtration profiles of fully N-acetylated heparin (A) and 52% glycol split heparin (B) before (a) and after (b) incubation with heparanase. 2 mg of each compound were incubated for 48 h at 37° C. in 40 mM phosphate-citrate buffer, pH 5.8, with or without 4 μg recombinant heparanase in a total volume of 50 μl. The samples were lyophilized, then redisolved in 0.5 ml water and analyzed by GPC-HPLC using 300×7.8 mm TSK PW 2000 and PW 3000 colums and a refraction index detector. The sharp peak is from salts.
Gel permeation analysis of N-acetyl heparin (NAH) and ˜50% glycol-split heparin (H, 52gs) before and after digestion with heparinase 2 mg of each compound were incubated for 48 h at 37° C. in 40 mM phosphate-citrate buffer, pH 5.8, with or without 4 μg recombinant heparanase in a total volume of 50 μl. The samples were lyophilized, then redisolved in 0.5 ml of water and analyzed by GPC-HPLC using 300×7.8 mm TSK PW 2000 and PW 3000 columns.

Where only a bound is given, the exact number is not on record here.

As for Heparin, on recombinant heparanase [1], the Inhibition is given as more than 100%. Also, the “Heparanase inhibitory activity, % Mean [SD (N)]” value on recombinant heparanase [2] was approximately 70%. The cleavage by heparanase result on recombinant heparanase [3] is “cleaved by heparanase”.
